For 80 compounds, RP-LC retention time results are on record in the METLIN SMRT retention time set (Domingo-Almenara et al. 2019).

A short description of the data set: gradient 5% acetonitrile 3 min, to 50% in 2 min, to 85% in 15 min, held 3 min, 100 µL/min. Particulars: column: Zorbax Extend-C18 2.1 x 50 mm; eluents: water / acetonitrile, 0.1% formic acid. Summed up:
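The mobile phases were water and acetonitrile, each with 0.1% formic acid, pumped at 100 μL/min through a Zorbax Extend-C18 column (2.1 × 50 mm, 1.8 μm). Pure standards were injected as mixtures of ~100 molecules and detected by a quadrupole time-of-flight mass spectrometer in positive and negative ionization mode. Retention time came from computationally picked adduct peaks, each inspected by hand.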
Turning to `Cc1ccc(N2CCC(NC(=O)Nc3ccc(C)c(C)c3)C2=O)cc1` (stereo not given), the RP-LC retention time came out at 902 s.
Next, `COC[C@@H]1CN(Cc2cccc(OC)n2)C[C@H]1c1ccncc1`: 536 s; `CCn1ccc2sc(C)c(C(=O)N3CCN(c4ccc(OC)cc4)CC3)c2c1=O`: 714 s; `CC1CCCN(CCCNC(=O)C(=O)Nc2ccc3nc4n(c(=O)c3c2)CCCCC4)C1` (stereo not given): 599 s.
For `CCN(CC)C(=O)CS(=O)Cc1cnn(-c2ccccc2)c1-n1cccc1` (stereo not given), the RP-LC retention time is 754 s.
With `Cc1ccc(N(C)C(=O)C2CCN(S(=O)(=O)c3ccc(-c4noc(C5CC5)n4)cc3)CC2)cc1` the figure was 1100 s; with `Cc1cc2c(cc1S(=O)(=O)N1CCCC1C(=O)NCc1ccccc1Cl)OCC(=O)N2` (stereo not given), 791 s.
Next, `O=C(CC1CCN(C(=O)C2(c3ccccc3)CC2)C1)NC1CC1` (stereo not given): 666 s; `c1ccc2cc(CC3=NCCN3)ccc2c1`: 649 s.
With `Cc1nc(CC(=O)NC(C)c2ccc(F)cc2)sc1C(=O)NC1CC1` (stereo not given) the figure was 683 s; with `Cc1noc(C)c1CC(=O)N1CCc2c(c(-c3nncn3C)nn2C)C1`, 591 s.
In turn, `O=C(NCC1CCCO1)c1c[nH]c2ncccc12` (stereo not given) returned an RP-LC retention time of 589 s.
Next, `COc1ccc(N2CCN(c3cc(SCC(=O)Nc4ccc(OC)c(Cl)c4)ncn3)CC2)cc1`: 967 s; `CC(NC(=O)c1cccc(N(C)C)c1)C(=O)Nc1nc2ccccc2[nH]1` (stereo not given): 603 s; `O=C(Cn1cccc1-c1nnc(-c2ccccc2)o1)Nc1cccc(F)c1`: 960 s.
In the case of `CCn1cc(C2=CCN(S(=O)(=O)c3ccc(F)cc3)CC2)c2cccnc21`, the RP-LC retention time came to 1020 s.
As for `Cn1c(=O)c(SCC(=O)NCc2cccc(Br)c2)nc2cccnc21`, the RP-LC retention time came to 806 s.
With `O=C(NC1CC1)c1cccc(OCC2CCCN(C(=O)C3CCCO3)C2)c1` (stereo not given) the figure was 689 s; with `CCc1ccc(-c2noc(Cn3c(=O)n(-c4ccccc4)c(=O)c4sccc43)n2)cc1`, 1090 s; with `CCn1cc(CN2CCC(C(=O)NCc3ccco3)CC2)c2ccccc21`, 658 s.
With `Cn1cc(S(=O)(=O)N2CCC(C(=O)NCc3ccc(F)cc3)CC2)cc1C(=O)N1CCCC1` the figure was 722 s; with `COCCN1C(=O)c2ccccc2C(C(=O)N2CCN(Cc3ccccc3)CC2)C1c1cccs1` (stereo not given), 661 s.
Next, `CCCCN1C(=O)CC(C(=O)OCC)=C1C`: 892 s; `Cc1ccc2nc(NC(=O)CSc3nnc(C4COc5ccccc5O4)o3)sc2c1` (stereo not given): 866 s; `CCNC(=O)c1cnn(-c2cc(-c3nc(C4CC4)no3)ccn2)c1C`: 826 s.
Consider `O=C(Nc1nc(-c2ccc(Cl)cc2Cl)cs1)c1ccno1`, for which the RP-LC retention time came to 981 s.
Next, `CCOC(=O)C1CCN(c2ncc(S(=O)(=O)c3ccc(Cl)cc3)c(N)n2)CC1`: 1030 s; `CC(=O)N1CCC2(CC1)C(=O)N(C)c1ccccc12`: 665 s.
With `CCOC(=O)COc1cc(-c2ccc(C)cc2)nc2ccc(NC(=O)C3CC3)cc12` the figure was 776 s.
With `O=C(C1=NNc2cc(Cl)ccc2S1(=O)=O)N1CCOCC1` the figure was 664 s; with `Cc1ccc(S(=O)(=O)N2CCC(C(=O)NC(C)C(=O)N3CCCc4ccccc43)CC2)cc1` (stereo not given), 902 s.
`O=C(Nc1cccc(OCc2nnc(-c3ccc(Cl)cc3)o2)c1)c1ccoc1` came in with an RP-LC retention time of 970 s.
In the case of `CCS(=O)(=O)c1nc2ccc(NS(C)(=O)=O)cc2s1`, the RP-LC retention time is 699 s.
With `COc1ccc(N2CCN(C3=NS(=O)(=O)c4ccccc43)CC2)cc1` the figure was 780 s; with `CCn1c(=O)c(C(=O)NCCCOC(C)C)nc2cccnc21`, 728 s; with `Cc1noc(-c2cccn2Cc2cc(F)cc(F)c2)n1`, 1040 s.
With `O=C(Cn1ccc2ccccc21)Nc1ccc2cn[nH]c2c1` the figure was 726 s; with `COC(=O)N1CCN(c2ccc(-c3noc(C(F)(F)F)n3)cn2)CC1`, 904 s; with `CC1CCC(NC(=O)C2CCN(c3cnn(Cc4ccccc4)c(=O)c3)CC2)CC1` (stereo not given), 841 s.
Next, `COc1ccc(C(=O)Nc2nc(-c3ccc([N+](=O)[O-])cc3)cs2)cc1OC`: 1010 s; `CCOc1cccc(-c2noc(Cn3ncn4nc(-c5ccc(F)cc5)cc4c3=O)n2)c1`: 860 s; `CCCCn1c(=O)c2ccccc2n(Cc2nc(-c3ccc(OC)c(OC)c3)no2)c1=O`: 1060 s.
Regarding `CC(C(=O)N1CC2CN(S(=O)(=O)c3cccc(F)c3)CC(C1)O2)c1ccccc1` (stereo not given), the RP-LC retention time is 878 s.
As to `COc1ccc(OC)c(NC(=O)N2CCN(CCn3c(C(F)(F)F)nc4cccnc43)CC2)c1`, the RP-LC retention time is 642 s.
As for `O=C(Cn1cnc2c(-c3ccc(F)cc3)csc2c1=O)Nc1cc(F)ccc1F`, the RP-LC retention time was determined as 967 s.
With `COc1ccc(N2CCN(S(=O)(=O)c3cc(-c4cnn5c(C)cc(C)nc45)ccc3C)CC2)cc1` the figure was 1170 s; with `CCOc1ccc(-c2nn3c(Cc4ccc(OC)cc4)nnc3s2)cc1`, 1070 s.
Next, `O=C(NCCCc1ccccc1)c1nc(Cn2c(=O)oc3ccccc32)no1`: 952 s.
For `Cc1ccc(C)c2sc(N(C)CC(=O)O)nc12`, the RP-LC retention time amounted to 793 s.
Compound `Cc1[nH]c(=O)[nH]c(=O)c1S(=O)(=O)NC1CCCC1` came in with an RP-LC retention time of 620 s.
Compound `Cc1ccc(NC(=O)Cn2nc(N3CCC(C)CC3)c3ccccc3c2=O)cc1` displayed an RP-LC retention time of 1140 s.
Next, `COc1ccc(-c2cc3n(n2)CCCN(S(=O)(=O)c2cccc4cccnc24)C3)cc1`: 907 s.
With `Cc1cccc(-c2nc3ccccn3c2NC(=O)NC2CCCC2)c1` the figure was 639 s; with `CCOC(=O)C1CCN(Cc2nc(-c3ccc(N4CCCC4)nc3)no2)CC1`, 572 s; with `Cc1cccc(S(=O)(=O)N2CCC(c3noc(-c4ccc(F)cc4)n3)CC2)c1`, 1180 s.
As for `CC(=O)NCc1ccc(-c2noc(-c3cc(Cl)ccc3F)n2)s1`, the RP-LC retention time came out at 888 s.
Next, `Cc1cc(C)c(S(=O)(=O)N2CCC(n3cnc4c(C)cccc4c3=O)CC2)cc1C`: 1120 s.
Next, `O=C(Nc1ccc(N2CCOCC2)cc1)c1cn(-c2ccc(F)cc2)nn1`: 828 s.
Next, `COC(=O)C1=CN(c2cc(OC)ccc2OC)c2cc(F)ccc2S1(=O)=O`: 819 s; `CC(C)COC(=O)Nc1nc(CC(=O)Nc2ccccc2C(N)=O)cs1`: 703 s; `CCCCCNC(=O)C1CCN(c2nccnc2Sc2ccc(C)cc2)CC1`: 1100 s.
In the case of `CC(C)CNC(=O)N1C[C@@H]2CCCN3CCC[C@@H]([C@H]23)[C@H]1CCCC(=O)NCC1CC1`, the RP-LC retention time came out at 603 s.
Next, `COc1ccc(CCNC(=O)c2ccc3c(c2)N(C)C(=O)C2CCCCN32)cc1OC` (stereo not given): 774 s; `Cc1cc2c(c(=O)n(-c3ccc(F)cc3)c(=O)n2CC(=O)Nc2ccccc2Cl)n1C`: 858 s.
With `CCc1ccc(CNc2nc3ccncc3n(CC)c2=O)cc1` the figure was 701 s; with `CCN(CC)CCNC(=O)Cn1nc(-n2cccc2)c2c(C)cc(C)nc21`, 636 s; with `COc1cc(NC(=O)N2CCCC(Cn3cnc4cccnc43)C2)cc(OC)c1` (stereo not given), 682 s.
With `CCn1ccc(C(=O)Nc2ccccc2C#N)n1`, the RP-LC retention time was 744 s.
The compound `Cc1oc(C2CCN(C(=O)Nc3cccc(Cl)c3C)CC2)nc1C(=O)N1CCCC1` gave an RP-LC retention time of 813 s.
`CC1=NS(=O)(=O)N(C)C=C1C(=O)OCc1c(C)noc1C` yielded an RP-LC retention time of 776 s.
The compound `Cc1ccc(-c2cn3c(C(=O)Nc4nc(C)cs4)csc3n2)cc1` yielded an RP-LC retention time of 848 s.
Next, `Clc1ccc(C2(c3ccc(-c4cn[nH]c4)cc3)CCNCC2)cc1`: 680 s.
Next, `Cc1nn(CCC(=O)Nc2ccc(F)cc2F)c(=O)c2nn(-c3ccccc3)c(C)c12`: 795 s; `Cc1noc(C)c1S(=O)(=O)N1CCCC(Cn2c(C3CC3)nc3cccnc32)C1` (stereo not given): 720 s.
With `CC(CC(=O)NCCC1=CCCCC1)Cc1nnc2c(=O)n(-c3cccc(F)c3)ccn12` (stereo not given) the figure was 813 s; with `Cc1ccc(N2CCN(c3nccn4c(=O)n(CC(=O)Nc5ccc(C)c(C)c5)nc34)CC2)cc1`, 1000 s.
`CCCCOc1ccc(C(=O)Nc2nc3c(s2)CCc2ccc(OC)cc2-3)cc1` gave an RP-LC retention time of 1360 s.
`O=C(C1=NNc2ccccc2S1(=O)=O)N1CCCCC1` showed an RP-LC retention time of 773 s.
Next, `COC(=O)CC(NC(=O)N1CCCn2nc(-c3ccncc3)cc2C1)c1ccccc1` (stereo not given): 608 s.
With `CCOc1ccccc1NC(=O)C1(C)Oc2cccnc2N(C)C1=O` (stereo not given) the figure was 929 s.
